Measurements as given in patent US20110236504A1, “VERSATILE DISINFECTANT” (priority 2008, published 2011).

Columns and labels:
E. coli O-157 [1] = experiment: Metal ion or food preservative added to growth medium, viable count; format: cell-based; conditions: metal ion in growth medium
Method: (§1) To a standard medium for counting viable bacteria described below, each metal ion with varied concentration was added. […] Then, the number of viable bacteria was counted with time in a common procedure.
(§2) Sample bacteria: S. aureus 209P as a representative of Gram-positive bacteria • E. coli 0-157 as a representative of Gram-negative bacteria
(§3) Standard medium for counting viable bacteria: yeast extract 2.5 g, peptone 5 g, glucose 1 g, agar 15 g, pH 7.2

S. aureus 209P = experiment: as above; format: cell-based
Method: as §1, §2, §3

E. coli O-157 [2] = experiment: as above; format: cell-based; conditions: food preservative in growth medium
[3] = system: sample bacteria (S. aureus 209P, E. coli O-157); experiment: Death rate over time, food preservative in purified water pH 3.0
[4] = food preservative in growth medium

Structure (SMILES)	(a) Antiproliferative activity, concentration (E. coli O-157 [1])	(b) Bacteriostatic activity, concentration (E. coli O-157 [1])	(c) Bactericidal activity, concentration (E. coli O-157 [1])	(a) Antiproliferative activity, concentration (S. aureus 209P; [4])	(b) Bacteriostatic activity, concentration (S. aureus 209P; [4])	(a) Antiproliferative activity, concentration (E. coli O-157 [2])	(b) Bacteriostatic activity, concentration (E. coli O-157 [2])	Death rate ([3]; 50 ppm, 5 min)	Death rate ([3]; 50 ppm, 10 min)	Death rate ([3]; 50 ppm, 15 min)	Death rate ([3]; 50 ppm, 30 min)	Death rate ([3]; 50 ppm, 60 min)	Death rate ([3]; 50 ppm, 90 min)	Death rate ([3]; 50 ppm, 120 min)	Death rate ([3]; 200 ppm, 5 min)	Death rate ([3]; 200 ppm, 10 min)	Death rate ([3]; 200 ppm, 15 min)	Death rate ([3]; 200 ppm, 30 min)	Death rate ([3]; 200 ppm, 60 min)	Death rate ([3]; 200 ppm, 90 min)	also measured
O=[N+]([O-])[O-].[Ag+] [Ag^+, AgNO3]	0.05~2 ppm	2~4 ppm	4 ppm>																		
O=C(O)c1ccccc1 [Benzoic acid]				25~200 ppm	180 ppm>	25~200 ppm	180 ppm>	0	0	0	1	5	10	12	0	0	0	2	7	10	Death rate ([3]; 200 ppm, 120 min): 12; Death rate ([3]; 500 ppm, 5 min): 0; Death rate ([3]; 500 ppm, 10 min): 0; Death rate ([3]; 500 ppm, 15 min): 1; Death rate ([3]; 500 ppm, 30 min): 3; Death rate ([3]; 500 ppm, 60 min): 8; Death rate ([3]; 500 ppm, 90 min): 12; Death rate ([3]; 500 ppm, 120 min): 15
O.O.O.O.O.O.[Cl-].[Cl-].[Co+2] [Co^2+, CoCl2•6H2O]	100~250 ppm	220~500 ppm	500 ppm>																		Acceleration of growth, concentration (E. coli O-157 [1]): 25 ppm<; (c) Bactericidal activity, concentration (S. aureus 209P; metal ion in growth medium): 500 ppm>; Acceleration of growth, concentration (S. aureus 209P; metal ion in growth medium): 20 ppm<
CCOC(=O)c1ccc(O)cc1 [Ethyl para-hydroxybenzoate]				50~300 ppm	250 ppm>	40~300 ppm	230 ppm>	0	0	0	2	5	8	12	0	0	0	2	5	10	Death rate ([3]; 200 ppm, 120 min): 12; Death rate ([3]; 500 ppm, 5 min): 0; Death rate ([3]; 500 ppm, 10 min): 0; Death rate ([3]; 500 ppm, 15 min): 0; Death rate ([3]; 500 ppm, 30 min): 2; Death rate ([3]; 500 ppm, 60 min): 7; Death rate ([3]; 500 ppm, 90 min): 12; Death rate ([3]; 500 ppm, 120 min): 15
O.O.O.O.O.O.O.O=S(=O)([O-])[O-].[Ni+2] [Ni^2+, NiSO4•7H2O]	20~170 ppm	150~350 ppm	350 ppm>																		Acceleration of growth, concentration (E. coli O-157 [1]): 10 ppm<; (a) Antiproliferative activity, concentration (S. aureus 209P; metal ion in growth medium): 25~150 ppm; (b) Bacteriostatic activity, concentration (S. aureus 209P; metal ion in growth medium): 120~300 ppm; (c) Bactericidal activity, concentration (S. aureus 209P; metal ion in growth medium): 300 ppm>; Acceleration of growth, concentration (S. aureus 209P; metal ion in growth medium): 5 ppm<
